Measurements taken from patent US20050209278A1, “Piperidinyl- and piperazinyl-sulfonylmethyl hydroxamic acids and their use as protease inhibitors” (priority 2002, published 2005).
Counter-ions that a name gives are not always drawn.

Molecular target: T1, MMP-2 (Homo sapiens, UniProt P08253)
T1 construct: made in house; host or cells: MMP-2-transfected p2AHT2 cells
T1 sequence (P08253 110-660): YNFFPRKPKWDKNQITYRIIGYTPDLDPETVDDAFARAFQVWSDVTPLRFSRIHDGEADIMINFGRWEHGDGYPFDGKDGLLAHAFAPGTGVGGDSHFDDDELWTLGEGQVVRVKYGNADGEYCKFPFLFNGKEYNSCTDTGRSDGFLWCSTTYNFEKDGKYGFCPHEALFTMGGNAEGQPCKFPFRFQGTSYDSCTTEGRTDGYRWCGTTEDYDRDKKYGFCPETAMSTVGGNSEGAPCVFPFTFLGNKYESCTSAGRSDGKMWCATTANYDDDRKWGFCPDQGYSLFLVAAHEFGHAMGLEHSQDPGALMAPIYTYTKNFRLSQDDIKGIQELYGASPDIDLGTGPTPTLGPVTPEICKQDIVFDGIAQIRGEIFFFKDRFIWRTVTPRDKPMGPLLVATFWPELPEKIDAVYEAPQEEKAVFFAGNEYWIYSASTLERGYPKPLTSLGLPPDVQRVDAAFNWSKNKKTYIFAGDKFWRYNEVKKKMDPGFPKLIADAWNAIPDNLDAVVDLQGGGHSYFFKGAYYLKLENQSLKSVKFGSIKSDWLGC
Assay: In vitro MMP inhibition, IC50 determination (fluorogenic substrate I)
Format: biochemical
Conditions: values in parenthesis; 4 μM substrate I; room temperature
Experimental: Several hydroxamic acids and salts thereof were analyzed in in vitro assays to determine their ability to inhibit the MMP cleavage of peptide substrates. […] and IC50 constants were calculated from the assayed hydroxamic acid-MMP interactions.
Human recombinant MMP-1, MMP-2, MMP-9, MMP-13, and MMP-14 were used in this assay. All enzymes were prepared in Assignee's laboratories following usual laboratory procedures. Protocols for the preparation and use of these enzymes are available in the scientific literature. See, e.g., Enzyme Nomenclature (Academic Press, San Diego, Calif., 1992) (and the citations therein). See also, Freije et al., “Molecular cloning and expression of collagenase-3, a novel human matrix metalloproteinase produced by breast carcinomas,” J Biol. Chem., 269(24), 16766-16773 (1994).
The MMP-2 proenzyme was purified by gelatin Sepharose chromatography from MMP-2-transfected p2AHT2 cells provided by Dr. Gregory Goldberg of Washington University (St. Louis, Mo.).
All MMPs were activated using 4-aminophenylmercuric acetate (“APMA”, Sigma Chemical, St. Louis, Mo.) or trypsin. MMP-9 also was activated using human recombinant MMP-3 (purified in Assignee's laboratory following standard cloning and purification techniques).
Two fluorogenic, methoxycoumarin-containing polypeptide substrates were used in the MMP inhibition assays: [drawing 427] Here, “Dpa” is 3-(2,4-dinitrophenyl)-L-2,3-diaminopropionyl group, and “MCA” is 7-methoxycoumarin-4-yl acetyl. Substrate (I) was purchased from Baychem (Redwood City, Calif.), and substrate II was prepared Assignee's laboratory. Substrate I was used in the IC50 determination assays, while substrate II was used in the Ki determination assays. In the absence of MMP inhibitory activity, either substrate is cleaved at the Gly-Leu peptide bond. This cleavage separates the highly fluorogenic peptide from the 2,4-dinitrophenyl quencher, thus resulting in increase of fluorescent intensity.
The stock solutions of the assayed hydroxamic acids (or salts thereof) were prepared in 1% dimethyl sulfoxide (DMSO). These stock solutions were diluted in Buffer A (100 mM Tris-HCl, 100 mM NaCl, 10 mM CaCl2, 0.05% polyoxyethylene 23 lauryl ether, pH 7.5) to obtain solutions with different hydroxamic acid concentrations, i.e., assay solutions with different concentrations of the assayed MMP inhibitory compound. The experiment controls contained the same amount of Buffer A/DMSO as the assayed sample, but contained no hydroxamic acid (or salt thereof).
The assays from which the IC50 determinations were made were performed as follows. The MMPs were activated with either trypsin or APMA (4-aminophenylmercuric acetate, Sigma Chemical, St. Louis, Mo.). The assayed hydroxamic acid samples were incubated in Microfluor™ White Plates (Dynatech, Chantilly, Va.) and analyzed on a Perkin Elmer L550 plate reader (Norwalk, Conn.). The excitation wavelength was 328 nm, and the emission wavelength—415 nm. All samples (assayed hydroxamic acids and controls) were incubated in separate plates at room temperature in the presence of 4 μM of MMP substrate (I). As stated in the previous paragraph, samples containing varying concentrations of the same assayed hydroxamic acid were prepared. Inhibition was measured as a reduction in fluorescent intensity as a function of MMP inhibitor concentration.
The above protocols were used to determine IC50 constants and Ki values for the compounds in Examples 1-27 above. All values in Table 2 are given in nM units. The IC50 measurements are in parenthesis.

| IC50 [nM] | Structure (SMILES) |
| --- | --- |
| < 0.1 | CCCCc1ccc(N2CCN(S(=O)(=O)C3(C(=O)NO)CCN(CCOC)CC3)CC2)cc1 [Example 5, 4-{[4-(4-butylphenyl)piperazin-1-yl]sulfonyl}-N-hydroxy-1-(2-methoxyethyl)piperidine-4-carboxamide Dihydrochloride] |
| 0.1 | CCCCCc1ccc(C2CCN(S(=O)(=O)C3(C(=O)NO)CCN(CCOC)CC3)CC2)cc1 [Example 15, N-hydroxy-1-(2-methoxyethyl)-4-{[4-(4-pentylpheyl)piperidin-1-yl]sulfonyl}piperidine-4-carboxamide Hydrochloride] |
